{"source": "patent US20070128217A1", "about": "(priority 2003, published 2007)", "key": {"[1]": {"tested_on": "antibodies in sera from SARS patients (sera 1a, 1b, 2, 6, 37, 62, London, SARS-yellow, SARS-green)", "assay_type": "binding, human", "set-up": "Binding of serum 6 to linear peptides of protein X1 of SARS-CoV Urbani / Binding of serum 37 to linear peptides of protein X1 of SARS-CoV Urbani / Binding of serum 6 to looped/cyclic peptide (PEPSCAN-ELISA) / Binding of serum 37 to looped/cyclic peptide (PEPSCAN-ELISA) / Binding of serum 37 to looped/cyclic peptides of protein X1 of SARS-CoV Urbani / Binding of serum 6 to linear peptides of protein X2 / Binding of serum 37 to linear peptides of protein X2 / Binding of serum 37 to looped/cyclic peptides of protein X2 of SARS-CoV Urbani / Binding of serum 6 to linear peptides of protein M of SARS-CoV Urbani / Binding of serum 37 to linear peptides of protein M of SARS-CoV Urbani / Binding of serum 6 to looped/cyclic peptides of protein M of SARS-CoV Urbani / Binding of serum 37 to looped/cyclic peptides of protein M of SARS-CoV Urbani / Binding of serum 6 to linear peptides of protein X3 of SARS-CoV Urbani / Binding of serum 37 to linear peptides of protein X3 of SARS-CoV Urbani / Binding of serum 37 to looped/cyclic peptides of protein X3 of SARS-CoV Urbani / Binding of serum 6 to linear peptides of protein X4 of SARS-CoV Urbani / Binding of serum 37 to linear peptides of protein X4 of SARS-CoV Urbani / Binding of serum 37 to looped/cyclic peptides of protein X4 of SARS-CoV Urbani / Binding of serum 6 to linear peptides of protein X5 of SARS-CoV Urbani / Binding of serum 37 to linear peptides of protein X5 of SARS-CoV Urbani / Binding of serum 37 to looped/cyclic peptides of protein X5 of SARS-CoV Urbani / Binding of serum 6 to linear peptides of protein N of SARS-CoV Urbani / Binding of serum 37 to linear peptides of protein N of SARS-CoV Urbani / Binding of serum 6 to linear peptide (PEPSCAN-ELISA) / Binding of serum 1a to looped/cyclic peptides of protein N of SARS-CoV Urbani / Binding of serum 1b to looped/cyclic peptides of protein N of SARS-CoV Urbani / Binding of serum 2 to looped/cyclic peptides of protein N of SARS-CoV Urbani / Binding of serum 6 to looped/cyclic peptides of protein N of SARS-CoV Urbani / Binding of serum 37 to looped/cyclic peptides of protein N of SARS-CoV Urbani / Binding of serum 62 to looped/cyclic peptides of protein N of SARS-CoV Urbani / Binding of serum London to looped/cyclic peptides of protein N of SARS-CoV Urbani / Binding of serum SARS-green to looped/cyclic peptides of protein N of SARS-CoV Urbani: unit not given here"}, "[2]": {"tested_on": "rabbit serum obtained by immunizing a rabbit with the SARS-CoV strain Frankfurt 1", "assay_type": "binding", "set-up": "Binding of a rabbit serum to linear peptides / Binding of a rabbit serum to looped peptides / Rabbit serum linear peptides / Rabbit serum looped peptides / Binding of a rabbit serum to linear peptides of protein N of SARS-CoV Urbani (Rabbit serum linear peptides) / Binding of a rabbit serum to looped/cyclic peptides of protein N of SARS-CoV Urbani (Rabbit serum looped peptides): unit not given here"}, "[3]": {"tested_on": "control sera (pooled serum of ten healthy LUMC hospital workers; commercial negative donor pooled serum from the Dutch bloodbank)", "assay_type": "binding, human", "set-up": "Binding of Control serum LUMC to linear peptides / Binding of Control serum Blood-bank to linear peptides / Binding of Control serum LUMC to looped peptides / Binding of Control Serum Blood-Bank to Looped peptides / Binding of Control serum LUMC to linear peptides of the protein M of SARS-CoV Urbani / Binding of Control serum Blood-bank to linear peptides of the protein M of SARS-CoV Urbani / Binding of Control serum LUMC to looped peptides of the protein M of SARS-CoV Urbani / Binding of Control Serum Blood-Bank to Looped peptides of the protein M of SARS-CoV Urbani: unit not given here"}}, "data": [{"sequence": "AALVFLILCFTIKRK", "values": [{"measurement": "Binding of serum 1a to linear peptides of protein X4 of SARS-CoV Urbani", "setting": "[1]", "value": 0.7}, {"measurement": "Binding of serum 1a to looped/cyclic peptides of protein X4 of SARS-CoV Urbani", "setting": "[1]", "value": 0.8}, {"measurement": "Binding of serum 1b to linear peptides of protein X4 of SARS-CoV Urbani", "setting": "[1]", "value": 0.8}, {"measurement": "Binding of serum 1b to looped/cyclic peptides of protein X4 of SARS-CoV Urbani", "setting": "[1]", "value": 0.5}, {"measurement": "Binding of serum 2 to linear peptides of protein X4 of SARS-CoV Urbani", "setting": "[1]", "value": 0.6}, {"measurement": "Binding of serum 2 to looped/cyclic peptides of protein X4 of SARS-CoV Urbani", "setting": "[1]", "value": 0.7}, {"measurement": "Binding of serum 6 to linear peptides of protein X4 of SARS-CoV Urbani", "setting": "[1]", "value": 0.8}, {"measurement": "Binding of serum 6 to looped/cyclic peptides of protein X4 of SARS-CoV Urbani", "setting": "[1]", "value": 0.7}, {"measurement": "Binding of serum 37 to linear peptides of protein X4 of SARS-CoV Urbani", "setting": "[1]", "value": 0.8}, {"measurement": "Binding of serum 37 to looped/cyclic peptides of protein X4 of SARS-CoV Urbani", "setting": "[1]", "value": 0.6}, {"measurement": "Binding of serum 62 to linear peptides of protein X4 of SARS-CoV Urbani", "setting": "[1]", "value": 0.8}, {"measurement": "Binding of serum 62 to looped/cyclic peptides of protein X4 of SARS-CoV Urbani", "setting": "[1]", "value": 0.7}, {"measurement": "Binding of serum London to linear peptides of protein X4 of SARS-CoV Urbani", "setting": "[1]", "value": 0.8}, {"measurement": "Binding of serum London to looped/cyclic peptides of protein X4 of SARS-CoV Urbani", "setting": "[1]", "value": 0.5}, {"measurement": "Binding of serum SARS-green to linear peptides of protein X4 of SARS-CoV Urbani", "setting": "[1]", "value": 0.7}, {"measurement": "Binding of serum SARS-green to looped/cyclic peptides of protein X4 of SARS-CoV Urbani", "setting": "[1]", "value": 0.4}, {"measurement": "Binding of serum SARS-yellow to linear peptides of protein X4 of SARS-CoV Urbani", "setting": "[1]", "value": 0.7}, {"measurement": "Binding of serum SARS-yellow to looped/cyclic peptides of protein X4 of SARS-CoV Urbani", "setting": "[1]", "value": 0.5}, {"measurement": "Rabbit serum linear peptides", "setting": "[2]", "value": 0.8}, {"measurement": "Rabbit serum looped peptides", "setting": "[2]", "value": 0.6}, {"measurement": "Binding of Control Serum Blood-Bank to Looped peptides", "setting": "[3]", "value": 0.8}, {"measurement": "Binding of Control serum Blood-bank to linear peptides", "setting": "[3]", "value": 0.9}, {"measurement": "Binding of Control serum LUMC to linear peptides", "setting": "[3]", "value": 0.7}, {"measurement": "Binding of Control serum LUMC to looped peptides", "setting": "[3]", "value": 0.6}]}, {"sequence": "AAVYRINWVTGGIAI", "values": [{"measurement": "Binding of serum 1a to linear peptides of protein M of SARS-CoV Urbani", "setting": "[1]", "value": 0.9}, {"measurement": "Binding of serum 1a to looped/cyclic peptides of protein M of SARS-CoV Urbani", "setting": "[1]", "value": 0.6}, {"measurement": "Binding of serum 1b to linear peptides of protein M of SARS-CoV Urbani", "setting": "[1]", "value": 0.7}, {"measurement": "Binding of serum 1b to looped/cyclic peptides of protein M of SARS-CoV Urbani", "setting": "[1]", "value": 0.4}, {"measurement": "Binding of serum 2 to linear peptides of protein M of SARS-CoV Urbani", "setting": "[1]", "value": 0.7}, {"measurement": "Binding of serum 2 to looped/cyclic peptides of protein M of SARS-CoV Urbani", "setting": "[1]", "value": 0.6}, {"measurement": "Binding of serum 6 to linear peptides of protein M of SARS-CoV Urbani", "setting": "[1]", "value": 0.5}, {"measurement": "Binding of serum 6 to looped/cyclic peptides of protein M of SARS-CoV Urbani", "setting": "[1]", "value": 0.5}, {"measurement": "Binding of serum 37 to linear peptides of protein M of SARS-CoV Urbani", "setting": "[1]", "value": 0.6}, {"measurement": "Binding of serum 37 to looped/cyclic peptides of protein M of SARS-CoV Urbani", "setting": "[1]", "value": 0.7}, {"measurement": "Binding of serum 62 to linear peptides of protein M of SARS-CoV Urbani", "setting": "[1]", "value": 0.5}, {"measurement": "Binding of serum 62 to looped/cyclic peptides of protein M of SARS-CoV Urbani", "setting": "[1]", "value": 0.4}, {"measurement": "Binding of serum London to linear peptides of protein M of SARS-CoV Urbani", "setting": "[1]", "value": 0.4}, {"measurement": "Binding of serum London to looped/cyclic peptides of protein M of SARS-CoV Urbani", "setting": "[1]", "value": 0.2}, {"measurement": "Binding of serum SARS-green to linear peptides of protein M of SARS-CoV Urbani", "setting": "[1]", "value": 0.6}, {"measurement": "Binding of serum SARS-green to looped/cyclic peptides of protein M of SARS-CoV Urbani", "setting": "[1]", "value": 0.0}, {"measurement": "Binding of serum SARS-yellow to linear peptides of protein M of SARS-CoV Urbani", "setting": "[1]", "value": 0.3}, {"measurement": "Binding of serum SARS-yellow to looped/cyclic peptides of protein M of SARS-CoV Urbani", "setting": "[1]", "value": 0.7}, {"measurement": "Rabbit serum linear peptides", "setting": "[2]", "value": 0.4}, {"measurement": "Rabbit serum looped peptides", "setting": "[2]", "value": 0.4}, {"measurement": "Binding of Control Serum Blood-Bank to Looped peptides of the protein M of SARS-CoV Urbani", "setting": "[3]", "value": 0.8}, {"measurement": "Binding of Control serum Blood-bank to linear peptides of the protein M of SARS-CoV Urbani", "setting": "[3]", "value": 0.8}, {"measurement": "Binding of Control serum LUMC to linear peptides of the protein M of SARS-CoV Urbani", "setting": "[3]", "value": 1.0}, {"measurement": "Binding of Control serum LUMC to looped peptides of the protein M of SARS-CoV Urbani", "setting": "[3]", "value": 0.5}]}, {"sequence": "AAYNRYRIGNYKLNT", "values": [{"measurement": "Binding of serum 1a to linear peptides of protein M of SARS-CoV Urbani", "setting": "[1]", "value": 0.7}, {"measurement": "Binding of serum 1a to looped/cyclic peptides of protein M of SARS-CoV Urbani", "setting": "[1]", "value": 0.7}, {"measurement": "Binding of serum 1b to linear peptides of protein M of SARS-CoV Urbani", "setting": "[1]", "value": 0.5}, {"measurement": "Binding of serum 1b to looped/cyclic peptides of protein M of SARS-CoV Urbani", "setting": "[1]", "value": 0.5}, {"measurement": "Binding of serum 2 to linear peptides of protein M of SARS-CoV Urbani", "setting": "[1]", "value": 0.7}, {"measurement": "Binding of serum 2 to looped/cyclic peptides of protein M of SARS-CoV Urbani", "setting": "[1]", "value": 0.8}, {"measurement": "Binding of serum 6 to linear peptides of protein M of SARS-CoV Urbani", "setting": "[1]", "value": 0.8}, {"measurement": "Binding of serum 6 to looped/cyclic peptides of protein M of SARS-CoV Urbani", "setting": "[1]", "value": 1.3}, {"measurement": "Binding of serum 37 to linear peptides of protein M of SARS-CoV Urbani", "setting": "[1]", "value": 0.6}, {"measurement": "Binding of serum 37 to looped/cyclic peptides of protein M of SARS-CoV Urbani", "setting": "[1]", "value": 0.5}, {"measurement": "Binding of serum 62 to linear peptides of protein M of SARS-CoV Urbani", "setting": "[1]", "value": 0.5}, {"measurement": "Binding of serum 62 to looped/cyclic peptides of protein M of SARS-CoV Urbani", "setting": "[1]", "value": 0.7}, {"measurement": "Binding of serum London to linear peptides of protein M of SARS-CoV Urbani", "setting": "[1]", "value": 0.4}, {"measurement": "Binding of serum London to looped/cyclic peptides of protein M of SARS-CoV Urbani", "setting": "[1]", "value": 0.5}, {"measurement": "Binding of serum SARS-green to linear peptides of protein M of SARS-CoV Urbani", "setting": "[1]", "value": 0.5}, {"measurement": "Binding of serum SARS-green to looped/cyclic peptides of protein M of SARS-CoV Urbani", "setting": "[1]", "value": 0.3}, {"measurement": "Binding of serum SARS-yellow to linear peptides of protein M of SARS-CoV Urbani", "setting": "[1]", "value": 0.2}, {"measurement": "Binding of serum SARS-yellow to looped/cyclic peptides of protein M of SARS-CoV Urbani", "setting": "[1]", "value": 0.7}, {"measurement": "Rabbit serum linear peptides", "setting": "[2]", "value": 0.4}, {"measurement": "Rabbit serum looped peptides", "setting": "[2]", "value": 0.6}, {"measurement": "Binding of Control Serum Blood-Bank to Looped peptides of the protein M of SARS-CoV Urbani", "setting": "[3]", "value": 0.8}, {"measurement": "Binding of Control serum Blood-bank to linear peptides of the protein M of SARS-CoV Urbani", "setting": "[3]", "value": 0.9}, {"measurement": "Binding of Control serum LUMC to linear peptides of the protein M of SARS-CoV Urbani", "setting": "[3]", "value": 0.8}, {"measurement": "Binding of Control serum LUMC to looped peptides of the protein M of SARS-CoV Urbani", "setting": "[3]", "value": 0.7}]}]}
